These results are taken from patent publication US20110257233A1, “BENZOISOTHIAZOLONES AS INHIBITORS OF PHOSPHOMANNOSE ISOMERASE” (Sanford-Burnham Medical Research Institute, priority 2010, published 2011).

What is called IC50 is the midpoint of a concentration-inhibition curve.

Molecules are shown by their SMILES. In brackets after ≈: the same amount, converted by molar mass. Read-outs that look alike come from different tables or passages of the source.

One data set in a line: Plasma stability, human. Type of data set: in vitro ADME. The text has this:
(§1) ADME (absorption, distribution, metabolism, elimination) provides an efficient means of discovering potential issues with respect to bioavailability and the potential for in vivo efficiency. The microsomal stability assay measures a compound's potential to be metabolized by the liver and can also identify metabolic liabilities. The plasma stability assay gives essential information on whether a compound will be degraded in plasma. Finally, the Parallel Artificial Membrane Permeability Assay (PAMPA) measures compound diffusion rates through an artificial membrane to give valuable information on a compounds potential for intestinal absorption and tissue and cell permeability. [table]

Data set [1] can be described thus: Parallel Artificial Membrane Permeability Assay (PAMPA). Type of data set: in vitro ADME. The note with it: diffusion through a lipid membrane.
Source text: as §1
On the technique in general: PAMPA measures passive passage across an artificial lipid membrane.

A short description of a further data set: Plasma stability, mouse. Type of data set: in vitro ADME.
Source text: as §1

The target of data set [2] is T1, phosphomannomutase 2 (PMM) (Homo sapiens, UniProt O15305).
T1 sequence (O15305 1-246): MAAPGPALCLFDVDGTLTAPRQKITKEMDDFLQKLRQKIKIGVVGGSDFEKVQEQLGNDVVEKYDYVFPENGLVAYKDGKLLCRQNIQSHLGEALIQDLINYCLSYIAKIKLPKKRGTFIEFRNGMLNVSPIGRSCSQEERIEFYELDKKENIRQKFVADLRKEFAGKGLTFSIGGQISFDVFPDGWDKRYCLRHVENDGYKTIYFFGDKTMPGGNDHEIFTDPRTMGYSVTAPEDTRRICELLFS
Nature of the data set: PMM enzyme inhibition assay. Type of data set: biochemical. Particulars: for IC50: mean of at least three determinations.

Data set [3] in a line: Microsomal stability, human. Type of data set: in vitro ADME. The note with it: human liver microsomes.
Source text: as §1
In general terms: Liver microsomes are a subcellular fraction often used to study metabolism.

The nature of data set [4]: Microsomal stability, mouse. Type of data set: in vitro ADME. The note with it: mouse liver microsomes.
Source text: as §1

The test system of data set [5] is protein glycosylation (mannose incorporated in proteins). Nature of the data set: Cellular assay: 3H-mannose incorporated in proteins vs glycolysis. Type of data set: cell-based. The protocol:
A cellular assay was developed and utilized to provide proof-of-concept for the potential of the optimized PMI inhibitors as CDG therapeutics. […] Briefly. cells were preincubated with inhibitors and labeled with 3H-Mannose and 35S-Met/Cys. After washing and lysis, 3H- and 35S amounts were determined in the proteins.

The target in data set [6] is T2, phosphomannose isomerase (PMI) (Homo sapiens, UniProt P34949).
T2 sequence (P34949 1-423): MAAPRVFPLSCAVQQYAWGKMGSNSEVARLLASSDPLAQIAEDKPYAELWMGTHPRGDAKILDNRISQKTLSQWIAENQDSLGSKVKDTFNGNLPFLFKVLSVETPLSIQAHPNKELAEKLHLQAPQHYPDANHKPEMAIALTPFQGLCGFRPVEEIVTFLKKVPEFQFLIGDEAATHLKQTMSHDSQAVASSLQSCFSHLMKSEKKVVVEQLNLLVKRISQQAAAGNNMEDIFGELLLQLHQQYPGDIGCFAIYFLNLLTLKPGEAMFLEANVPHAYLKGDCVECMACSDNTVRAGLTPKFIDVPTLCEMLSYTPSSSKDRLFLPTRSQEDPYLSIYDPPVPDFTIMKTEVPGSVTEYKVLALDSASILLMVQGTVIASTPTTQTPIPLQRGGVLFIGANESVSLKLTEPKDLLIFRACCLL
Nature of the data set: PMI enzyme inhibition assay. Type of data set: biochemical.

Data set [7] concerns Cryptococcus neoformans (ATCC 24067). Nature of the data set: Microbial in vitro assay 647000. Type of data set: cell-based. The protocol:
The methods employed in this study were adapted from the scientific literature to maximize reliability and reproducibility. The reference standards were run as an integral part of each assay to ensure the validity of the results obtained. The assays were performed under conditions described below. The literature reference(s) for each assay are also provided as follows: Enza Di Modugno, Isabelle […]. […] Antimicrobial Agents Chemotherapy 3: 40-48; […]., Pursiano, […]. and Price, K. E. (1973) In Vitro Activity of the Tribactam GV 104326 against Gram-Positive, Gram-Negative, and Anaerobic Bacteria. Antimicrobial Agents and Chemotherapy, 38: 2362-2368, 1994; Enza Di Modugno, Isabelle […]. […] Antimicrobial Agents Chemotherapy 3: 40-48; and […]., Pursiano, […]. and Price, K. E. (1973) In vitro antibacterial activity of SM-7338, a carbapenem antibiotic with stability to dehydropeptidase I Antimicrobial Agents, Chemotherapy, 33 #2:215-222, 1989. […] Incubation Time/Temp: 2 days @37° C.; […] Time of Assessment: 2 days; Quantitation Method: Turbidity Measurement

Data set [8] relates to Candida albicans (ATCC 10231). Put plainly: Microbial in vitro assay 640000. Type of data set: cell-based. The protocol: The methods employed in this study were adapted from the scientific literature to maximize reliability and reproducibility. The reference standards were run as an integral part of each assay to ensure the validity of the results obtained. The assays were performed under conditions described below. The literature reference(s) for each assay are also provided as follows: Enza Di Modugno, Isabelle […]. […] Antimicrobial Agents Chemotherapy 3: 40-48; […]., Pursiano, […]. and Price, K. E. (1973) In Vitro Activity of the Tribactam GV 104326 against Gram-Positive, Gram-Negative, and Anaerobic Bacteria. Antimicrobial Agents and Chemotherapy, 38: 2362-2368, 1994; Enza Di Modugno, Isabelle […]. […] Antimicrobial Agents Chemotherapy 3: 40-48; and […]., Pursiano, […]. and Price, K. E. (1973) In vitro antibacterial activity of SM-7338, a carbapenem antibiotic with stability to dehydropeptidase I Antimicrobial Agents, Chemotherapy, 33 #2:215-222, 1989. 640000 Candida albicans (ATCC 10231); Culture Medium: Fluid Sabouraud Medium; […] Incubation Time/Temp: 20 hours @ 37° C.; […] Quantitation Method: Turbidity Measurement.

[9] abbreviates: mean of at least three determinations.
The mark [10] stands for this setting: reference standard run with the assay.

For `COc1ccc(-n2sc3ccc(F)cc3c2=O)cc1` [Compound 22, 5-Fluoro-2-(4-methoxyphenyl)-2-hydrobenzo[d]isothiazol-3-one], the “Plasma Stability (% remaining after 1 hour)” value in “Plasma stability, human” amounted to 107.0 % remaining; in the data set “Plasma stability, mouse”, 96.3 % remaining. For the same compound, in data set [1], the Permeability entry is recorded as “Low”. The same compound yielded an IC50 in data set [2] of 9.1 µM. Further, the figures for the “Microsomal Stability (% remaining after 1 hour)” value in data set [3] and in data set [4] were 100 % remaining and 84.06 % remaining, respectively.
For the compound `Cc1ccccc1-n1sc2cc(F)ccc2c1=O` [Compound 16, 6-Fluoro-2-o-tolylbenzo[d]isothiazol-3(2H)-one], the “Plasma Stability (% remaining after 1 hour)” value is given as 49.7 % remaining in “Plasma stability, human” and 117.5 % remaining in the data set “Plasma stability, mouse”. In data set [1], the Permeability result was “Medium”. Also, the “fold increase in the amount of mannose incorporated in proteins vs glycolysis” value (shortened to “fold increase in the amount”) came out at 2.8 fold in data set [5] (25.0 μM), 1.7 fold in [5] (50 μM) and 2.7 fold in [5] (12.5 (head prints no unit)). The “Microsomal Stability (% remaining after 1 hour)” value in [3] was 90 % remaining; in [4], 90.03 % remaining. In [6] (setting [9]), this compound registered an IC50 of 2.9 µM.
Consider `COc1ccc(-n2sc3cc(F)ccc3c2=O)cc1` [Compound 18], for which, in [2], the IC50 worked out at 12.9 µM.
For the compound `O=c1c2cc(F)ccc2sn1-c1ccc(Cl)cc1` [Compound 24, 2-(4-Chlorophenyl)-5-fluoro-2-hydrobenzo[d]isothiazol-3-one], the IC50 in data set [6] (setting [9]) came out at 1.8 µM.
On to `Cc1ccc(C)c(-n2sc3cc(F)ccc3c2=O)c1` [Compound 17], for which the results for the IC50 in data set [2] and in data set [6] (setting [9]) were 7.3 µM and 1.1 µM, respectively.
As for `O=c1c2cc(F)ccc2sn1-c1ccccc1F` [Compound 23], the “Plasma Stability (% remaining after 1 hour)” value in the data set “Plasma stability, human” came out at 35.7 % remaining; in the data set “Plasma stability, mouse” it was 106.7 % remaining. Moreover, in data set [1], the Permeability result is “Medium”. In addition, the “fold increase in the amount” value in data set [5] (25.0 μM) was determined as 0.7 fold; in data set [5] (50 μM), 2.5 fold; in data set [5] (12.5 (head prints no unit)), 9.1 fold. Moreover, the “Microsomal Stability (% remaining after 1 hour)” value was found to be 27.66 % remaining in data set [3] and 98.40 % remaining in [4]. Also, in data set [6] (setting [9]), the IC50 came out at 4.3 µM.
Turning to `Cc1ccc(C)c(-n2sc3ccc(F)cc3c2=O)c1` [Compound 20], the “Plasma Stability (% remaining after 1 hour)” value was 96.7 % remaining in the data set “Plasma stability, human” and 99.4 % remaining in “Plasma stability, mouse”. Further, the Permeability result in data set [1] is “Medium”. The entries for the “fold increase in the amount” value in data set [5] (25.0 μM), in data set [5] (50 μM) and in data set [5] (12.5 (head prints no unit)) were 2.3 fold, 3.2 fold and 1.9 fold, respectively. Besides, the results for the IC50 in [2] and in data set [6] (setting [9]) were over 20 µM and 1.9 µM, respectively. Further, the “Microsomal Stability (% remaining after 1 hour)” value in [3] worked out at 100 % remaining; in [4], 85.04 % remaining.
In data set [6], `O=c1c2ccccc2sn1-c1ccccc1` [Compound 1, 2-Phenyl-2-hydrobenzo[d]isothiazol-3-one] displayed an IC50 of 6.4 µM. In other words, the single-digit micromolar range.
As to `O=c1c2ccccc2sn1-c1cccc(Cl)c1` [Compound 7, 2(3-Chlorophenyl)-2-hydrobenzo[d]isothiazol-3-one], the IC50 in [6] (setting [9]) was 4.8 µM.
For `Cc1cccc(-n2sc3ccccc3c2=O)c1` [Compound 3, 2-(3-Methylphenyl)-2-hydrobenzo[d]isothiazol-3-one], the IC50 in [6] (setting [9]) was 6 µM.
`CN(C)c1ccc(-n2sc3ccccc3c2=O)cc1` [Compound 12, 2-[4-(Dimethylamino)phenyl]-2-hydrobenzo[d]isothiazol-3-one]: the “fold increase in the amount” value in data set [5] (50 μM) is recorded as 1.0 fold. Besides, the IC50 in [2] was 13.3 µM; in data set [6] (setting [9]), 1.9 µM.
Turning to `COC(=O)c1cccc(-n2sc3ccccc3c2=O)c1` [Compound 9], the IC50 in data set [2] is over 20 µM; in data set [6] (setting [9]), 4.9 µM.
For `COc1cccc(-n2sc3ccccc3c2=O)c1` [Compound 15, 2-(3-Methoxyphenyl)-2-hydrobenzo[d]isothiazol-3-one], the IC50 in data set [2] was over 20 µM; in [6] (setting [9]) it was 3.7 µM.
As to `O=c1c2cc(F)ccc2sn1-c1ccc(F)cc1` [Compound 21, 5-Fluoro-2-(4-fluorophenyl)-2-hydrobenzo[d]isothiazol-3-one], the “Plasma Stability (% remaining after 1 hour)” value came to 0.0 % remaining in “Plasma stability, human” and 71.4 % remaining in “Plasma stability, mouse”. Also, the Permeability entry in [1] is listed as “High”. Further, the IC50 in data set [2] was over 20 µM. Further, the results for the “Microsomal Stability (% remaining after 1 hour)” value in [3] and in data set [4] were 24.93 % remaining and 81.24 % remaining, respectively.
For the compound `Cc1ccc(-n2sc3ccccc3c2=O)cc1` [Compound 4, 2-(4-Methylphenyl)-2-hydrobenzo[d]isothiazol-3-one], the IC50 in [6] (setting [9]) amounted to 3.6 µM.
Regarding `C[C@@H]1[C@H](O)[C@@H](C)/C=C/C=C/C=C/C=C/C=C/C=C/C=C/[C@H](O[C@@H]2O[C@H](C)[C@@H](O)[C@H](N)[C@@H]2O)C[C@@H]2O[C@](O)(C[C@@H](O)C[C@@H](O)[C@H](O)CC[C@@H](O)C[C@@H](O)CC(=O)O[C@H]1C)C[C@H](O)[C@H]2C(=O)O` [Amphotericin B Solubilized, reference compound], the “CONCURRENT (reference compound data)” value in data set [7] (setting [10]) and in data set [8] (setting [10]) was 0.1 µg/mL throughout.
In the case of `CCOC(=O)c1ccc(-n2sc3ccccc3c2=O)cc1` [Compound 10], in [6] (setting [9]), the IC50 was determined as 7.2 µM.
Take `O=c1c2ccccc2sn1-c1cccc(C(F)(F)F)c1` [Compound 5, 2-[3(Trifluoromethyl)phenyl]-2-hydrobenzo[d]isothiazol-3-one]: the results for the IC50 in data set [2] and in data set [6] (setting [9]) were over 20 µM and 3.4 µM, respectively.
On to `O=c1c2cc(F)ccc2sn1-c1ccccc1` [Compound 19, 5-Fluoro-2-phenylbenzo[d]isothiazol-3(2H)-one], for which the MIC in data set [7] (ATCC24067, Cryptococcus neoformans, turbidity, read-out: minimal inhibitory concentration) is 1000 µg/mL (≈ 4.08 mM); in data set [8] (ATCC10231, Candida albicans, turbidity, read-out: minimal inhibitory concentration), 3000 µg/mL (≈ 12.2 mM). Further, the IC50 in [2] is over 20 µM; in [6] (setting [9]), 1.3 µM. Besides, the PMM inhibition entry in data set [2] (tested up to 20 μM) is “inactive”.
